In patent US20110251289A1, “NEW COMPOUNDS FOR THE TREATMENT OF CANCER” (CSIR, priority 2008, published 2011):
Converted amounts (≈) assume the structure as drawn.

Columns and labels:
Assay type in all cases: cell-based
HeLa cancer cells = assay: activity against HeLa cancer cells (toxicity, IC50)
human lymphocytes = assay: toxicity to human lymphocytes (IC50); details: Lymphocyte
HeLa cells = assay: MTT cytotoxicity assay, HeLa cells; details: 200 μM, 48 h
Method: (§1) In addition, when HeLa and MCF cells (breast cancer cells) were exposed to 200 μM pavetamine for 48 h, 30% cell death occurred for HeLa cells and 25% for the MCF cells. The MTT (3-(4,5-dimethyl-2-thiazolyl)-2,5-diphenyl-2H-tetrazolium bromide) assay (Sigma, St Louis, USA) was used to measure the cytotoxicity of pavettamine in these cell lines.

[1] = test system: MCF cells (breast cancer cells); assay: MTT cytotoxicity assay, MCF cells; details: 200 μM, 48 h
Method: as §1

[2] = test system: Selenastrum capricornumtum; assay: algal growth inhibition test; details: 1 mM to 0.063 mM, 72 hrs exposure, optical density relative to control
Method: The algal (Selenastrum capricornumtum) growth inhibition test involves exposing the unicellular algae to the toxicant for 72 hrs, under defined conditions: at a temperature of 24° C. and in a test facility fitted with a cool white fluorescent light with a light intensity of ±4000 lux. The test facility is free of vapour, odours and dust which may be toxic to the algae.
Growth inhibition is measured as a reduction in growth rate relative to the control and is determined in terms of optical density. Definitive tests (testing serial dilutions) are carried out. The percentage growth inhibition in each test is usually reported as Effect or the 72 hr EC20 or EC50.

Aspergillus clavatus = assay: growth inhibition of fungal and yeast cells
From the text: (§2) This selective inhibition of the growth of eukaryotes versus prokaryotes is a useful characteristic of the compound.

Debaryomyces hansenii = assay: growth inhibition of fungal and yeast cells
From the text: as §2

Penicillium expansum = assay: growth inhibition of fungal and yeast cells
From the text: as §2

Rhodotorula mucilaginosa = assay: growth inhibition of fungal and yeast cells
From the text: as §2

Actinomyces pyogenes = assay: growth inhibition of bacterial cells
From the text: as §2

[3] = test system: Bordetella bronchiseptica; assay: growth inhibition of bacterial cells
From the text: as §2

Pasteurella haemolytica = assay: growth inhibition of bacterial cells
From the text: as §2

[4] = test system: Sphingobacterium spritivorum; assay: growth inhibition of bacterial cells
From the text: as §2

[5] = test system: Staphylococcus intermedius; assay: growth inhibition of bacterial cells; details: Staphylococcus intermedius (3 strains)
From the text: as §2

SMILES: NC[C@@H](O)C[C@@H](O)CNC[C@H](O)C[C@H](O)CN [pavettamine, (2S,4R,8R,10S)-1,11-diamino-6-aza-undecane-2,4,8,10-tetraol]
- times more toxic to HeLa cancer cells than to human lymphocytes (HeLa cancer cells; HeLa cancer cells versus human lymphocytes): 10 ×
- IC50 (HeLa cancer cells; Homo sapiens, HeLa): 0.2 µg/mL (≈ 0.796 µM)
- IC50 (human lymphocytes): 2 µg/mL (≈ 7.96 µM)
- cell death, HeLa cells (HeLa cells): 30%
- cell death, MCF cells [1]: 25%
- growth inhibition of algae [2]: ≥ 98%
- inhibitory activity towards growth of fungal and yeast cells (Aspergillus clavatus): inhibitory activity
- inhibitory activity towards growth of fungal and yeast cells (Debaryomyces hansenii): inhibitory activity
- inhibitory activity towards growth of fungal and yeast cells (Penicillium expansum): inhibitory activity
- inhibitory activity towards growth of fungal and yeast cells (Rhodotorula mucilaginosa): inhibitory activity
- inhibitory activity towards growth of bacterial cells (Actinomyces pyogenes): no inhibitory activity
- inhibitory activity towards growth of bacterial cells [3]: no inhibitory activity
- inhibitory activity towards growth of bacterial cells (Pasteurella haemolytica): no inhibitory activity
- inhibitory activity towards growth of bacterial cells [4]: no inhibitory activity
- inhibitory activity towards growth of bacterial cells [5]: no inhibitory activity
